Measurements: ChEMBL document CHEMBL1201862, “PubChem BioAssay data set” (2004)
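Dose response: 5 concentrations. Exposure: 48 h. Format: 96-well plates. Endpoint: linear interpolation; highest concentration if not reached. Abbreviation: GI50, concentration required for 50% inhibition of growth.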 Calls of active or inactive are those of the source. No stated cut-off is given here; in the data, active = GI50 up to about 1.1 µM and inactive = higher.

Legend:
Test in all cases: NCI tumour cell line growth inhibition, 48 h
[1] = test system: OVCAR-3
[2] = test system: T47D
[3] = test system: SNB-19
[4] = test system: A498
[5] = test system: DU-145
[6] = test system: ACHN
[7] = test system: OVCAR-8
[8] = test system: RPMI-8226
[9] = test system: TK-10
[10] = test system: EKVX
[11] = test system: A549
[12] = test system: PC-3
[13] = test system: UACC-257
[14] = test system: SR
[15] = test system: SW-620
[16] = test system: HOP-62
[17] = test system: LOX IMVI
[18] = test system: SK-MEL-2
[19] = test system: UACC-62
[20] = test system: CAKI-1

Measured: GI50

Cc1ccc([S+]([O-])c2cccs2)cc1 (centres undefined)
inactive: [1] > 100 µM | [2] > 100 µM | [3] > 100 µM | [4] 38.1 µM | [5] > 100 µM | [6] > 100 µM | [7] > 100 µM | [8] > 100 µM | [9] > 100 µM | [10] > 100 µM | [11] > 100 µM | [12] > 100 µM | [13] > 100 µM | [14] > 100 µM | [15] > 100 µM | [16] > 100 µM

CCN(CC)CCCNc1nc(=O)[nH]c(C)c1C(=O)Nc1c2ccccc2nc2ccccc12
inactive: [1] 6.14 µM | [17] 8.43 µM | [2] 10.7 µM | [3] 8.71 µM | [4] 5.22 µM | [18] 20.8 µM | [5] 12.8 µM | [19] 6.32 µM | [6] 10.2 µM | [7] 21.7 µM | [8] 5.9 µM | [9] 17.1 µM | [10] 12.2 µM | [11] 4.45 µM | [12] 17.1 µM | [13] 15.6 µM | [20] 7.28 µM | [15] 21.4 µM | [16] 24.8 µM

O=c1[nH]ncc2[nH]c3c4ccccc4ccc3c12
inactive: [1] 29.6 µM | [17] 25.4 µM | [2] 52.8 µM | [5] > 100 µM | [6] 27.9 µM | [7] 51.3 µM | [8] 38.5 µM | [9] 28.6 µM | [10] 10.8 µM | [11] 22.2 µM | [12] 39.2 µM | [20] 48.2 µM | [14] 31.3 µM | [15] 41.3 µM | [16] 40.6 µM

O=C(OCc1ccccc1)N1CCN(C(=O)OCc2ccccc2)CCN(C(=O)OCc2ccccc2)CCN(C(=O)OCc2ccccc2)CCN(C(=O)OCc2ccccc2)CC1
inactive: [1] > 100 µM | [17] 80 µM | [2] > 100 µM | [3] > 100 µM | [4] > 100 µM | [18] > 100 µM | [5] > 100 µM | [19] > 100 µM | [6] > 100 µM | [7] > 100 µM | [9] 46.6 µM | [10] > 100 µM | [11] > 100 µM | [12] > 100 µM | [13] 26.7 µM | [20] > 100 µM | [15] > 100 µM | [16] 65 µM

CC1(C)C2CCC1(C)C(NC(=O)COCCOCC(N)=O)C2 (centres undefined)
inactive: [1] > 100 µM | [2] > 100 µM | [3] > 100 µM | [4] > 100 µM | [5] > 100 µM | [19] > 100 µM | [6] > 100 µM | [7] > 100 µM | [9] > 100 µM | [10] > 100 µM | [11] > 100 µM | [12] > 100 µM | [13] > 100 µM | [20] > 100 µM | [14] 31.1 µM | [15] > 100 µM | [16] > 100 µM

O=C(Nc1cnc(O)nc1O)C(Cl)Cl
inactive: [1] > 100 µM | [17] > 100 µM | [2] > 100 µM | [3] > 100 µM | [4] > 100 µM | [18] > 100 µM | [5] > 100 µM | [19] > 100 µM | [6] > 100 µM | [7] > 100 µM | [8] > 100 µM | [9] > 100 µM | [10] > 100 µM | [11] > 100 µM | [12] > 100 µM | [13] > 100 µM | [20] > 100 µM | [15] > 100 µM | [16] > 100 µM

CC(/C=C/C(O)=C1/C(=O)CNC1=O)=C\[C@@H](C)[C@H]1O[C@@]2(C)O[C@H](C(=O)[C@@H]3O[C@@]32C)[C@@H]1C
inactive: [1] 18.9 µM | [17] 14.5 µM | [2] 15.1 µM | [3] 22.9 µM | [4] 14.3 µM | [18] 22.7 µM | [5] 18.9 µM | [19] 16.7 µM | [6] 19.6 µM | [7] 20.2 µM | [8] 12.2 µM | [9] 19.2 µM | [10] 17.7 µM | [12] 14 µM | [13] 15.3 µM | [20] 19.4 µM | [15] 29.8 µM | [16] 22.2 µM

COC(=O)c1nc(Cl)nc(Cl)c1Cl
inactive: [1] 2.02 µM | [17] 13.4 µM | [2] 24.3 µM | [3] 83.8 µM | [5] 70.3 µM | [19] > 10 µM | [6] 14.4 µM | [7] 21 µM | [8] 1.29 µM | [9] 21.2 µM | [11] 44.1 µM | [12] 14.4 µM | [20] 18.2 µM | [14] 15.1 µM | [15] 16.2 µM | [16] 30.2 µM

CC(=O)O[C@H]1C(=O)[C@@]2(C)C(C(OC(=O)c3ccccc3)[C@]3(O)CC(OC(=O)C(O)C(NC(=O)c4ccccc4)c4cccc(Cl)c4)C(C)=C1C3(C)C)[C@]1(OC(C)=O)CO[C@@H]1C[C@@H]2O (some centres undefined)
inactive: [1] 4.18 µM | [17] 4.29 µM | [2] 8.15 µM | [3] > 10 µM | [18] 3.39 µM | [5] 3.57 µM | [19] 2.33 µM | [6] > 10 µM | [7] 5.92 µM | [8] 2.21 µM | [9] > 10 µM | [10] 7.23 µM | [11] 7.64 µM | [12] 7.11 µM | [13] 9.46 µM | [20] > 10 µM | [14] 1.47 µM | [15] 6.47 µM | [16] 7.01 µM

O=C(c1cccs1)N1CCCN(C(=O)c2cccs2)C1=S
inactive: [1] > 100 µM | [17] > 100 µM | [2] > 100 µM | [3] > 100 µM | [4] > 100 µM | [18] 84.7 µM | [5] > 100 µM | [19] > 100 µM | [6] > 100 µM | [7] > 100 µM | [8] > 100 µM | [9] > 100 µM | [10] 52.2 µM | [12] > 100 µM | [13] > 100 µM | [20] > 100 µM | [15] > 100 µM | [16] 26.2 µM

CNc1nc(OC)c2c(n1)n(C)c[n+]2C [HETEROMINE B]
inactive: [1] 62.7 µM | [17] > 100 µM | [2] > 100 µM | [3] > 100 µM | [4] > 100 µM | [18] 53.3 µM | [5] > 100 µM | [19] > 100 µM | [6] > 100 µM | [7] > 100 µM | [8] > 100 µM | [9] > 100 µM | [10] > 100 µM | [11] 73.8 µM | [12] > 100 µM | [13] > 100 µM | [20] > 100 µM | [15] > 100 µM | [16] > 100 µM
